Laboratory results reported in patent publication US20170027902A1, “Use of a Composition Comprising a Flavonol, A Flavonoid, and a Fatty Acid in the Treatment of Oxidative Injuries Due to Mitochondrial Dysfunction” (priority 2014, published 2017).

Experiments:
[1] = system: primary cultures of mouse cortical neurons; assay: Toxicity of high concentrations to cortical neuron cultures; format: cell-based; conditions: concentrations of 10 μg/ml or above
[2] = system: primary cultures of mouse cortical neurons; assay: Mitochondrial respiration (Seahorse XF24, oxygen consumption rate); format: cell-based; conditions: 0.1 μM, FCCP 2 μM
Procedure: The effects of E, Q and E+Q on key parameters of mitochondrial respiration in primary cultures of mouse cortical neurons were measured using a Seahorse Bioscience XF24 Extracellular Flux Analyzer XF24 instrument. Oxygen consumption rate (OCR) in fmol/cell were normalized by counting viable cortical neurons at the end of each experiment. A seeding density of 80,000 neurons/well was sufficient to obtain a measurable basal OCR (4-6 fmol/min/cell) permitting both OCR induction and inhibition to be assessed. Mitochondrial function in cortical neurons was measured by the sequential injection of oligomycin (2 μM), FCCP (2 μM), rotenone (300 nM) and antimycin (5 μM) to control and OGD-exposed cultures treated with various concentrations of E, Q or E+Q (0.1 μM).

[3] = system: cortical neurons; assay: OGD, viable neurons counted by FACS (Annexin V / 7AAD); format: cell-based, mouse; conditions: 0.03 and 0.1 μg/ml (0.1 and 0.3 μM); 24 hrs pretreatment; 90 min OGD (vehicle approximately 45%)
Procedure: Embryonic day 16 timed pregnant CD1 out-bred mice were obtained from Charles River Laboratories (Charles River; QC, Canada). Primary cortical neuron cultures were prepared from cerebral cortices of wild type (WT) CD1 mouse embryos as described previously, with the following modifications. Pregnant CD1 females were heavily anaesthetized with isoflurane vapor (Benson Medical Industries, Inc., Markham, ON) before being euthanized by decapitation. The embryonic day 16 (E16) fetuses were immediately removed from the sacrificed pregnant females by cesarean section and placed in ice-cold Hank's Balanced Salt Solution (HBSS) (GIBCO; Invitrogen, Amarillo, Calif.). The meninges were removed from the brains and cortices were isolated under a dissecting microscope. […] The trypsin and inhibitor solutions were discarded and each cell pellet was suspended in 1 ml of cortical neuron plating medium (Neurobasal medium (Invitrogen, Amarillo, Calif.) with 10% fetal bovine serum (GIBCO; Invitrogen; Amarillo, Calif.), 2% B27 supplement, 1 mM L-glutamine, and 1% Gentamycin (Invitrogen; Amarillo, Calif.), triturated 10 times and counted using trypan blue exclusion and a hemocytometer. Cortical neurons were plated in 96-well plates (Corning; Lowell, Mass.) that were pre-coated with poly-D-lysine (PDL; Sigma-Aldrich; Oakville, ON) according to the procedure described by the manufacturer. […]

SMILES | toxicity to primary cultures of mouse cortical neurons [1] | loss of spare respiratory capacity (SRC) after OGD [2] | neuronal survival (viable neurons relative to control, no OGD) [3] [%]
Oc1cc(O)c2c(c1)O[C@H](c1ccc(O)c(O)c1)[C@H](O)C2 [E, (2R,3R)-2-(3,4-dihydroxyphenyl)-3,4-dihydro-2H-chromene-3,5,7-triol] | increasingly toxic | only partially reversed | 55
O=c1c(O)c(-c2ccc(O)c(O)c2)oc2cc(O)cc(O)c12 [Q] | increasingly toxic | only partially reversed | 55
